For one test, the system named is Aedes aegypti. The test is described as follows: In vitro Warm Body assay, mosquitoes landing on treated warm body. The test is classed as in vivo. As to conditions: for repellent effect with increasing amount of stimuli (in words): 0.0016%, 0.04% and 1% in ethanol (FIG. 10). The procedure:
The arthropod controlling effect according to the present invention is determined on mosquitoes using an adapted Warm Body assay as defined in Kröber T, Kessler S, Frei J, Bourquin M, Guerin P M. An in vitro assay for testing mosquito controlling compounds employing a warm body and carbon dioxide as a behavioral activator. J Am Mosq Control Assoc. 2010; 26:381-386.
The controlling effect according to the present invention is determined by testing the Warm Body assay against the yellow fever mosquito, Aedes aegypti Rockefeller strain. […] Observations of controlling efficacy were made on host-seeking females of uniform age, 5 to 10 days old selected as mentioned in the publication mentioned hereinabove. Tested hungry females had access to 10% sugar solution but were not blood-fed.
The published protocol has been adapted in not manually counting the landing mosquitoes but automatically using an automatic counting software, the switch from Anopheles gambiae to A. aegypti led to a decrease of mosquitoes' number placed in the tested cage due to the size difference (i.e. 30 mosquitoes instead of 50) and to an increase of lighting as A. aegypti is a diurnal mosquitoes (i.e. 150 lux instead of 4 lux).
The controlling effect according to the present invention is determined by testing the Warm Body assay against the yellow fever mosquito, A. aegypti Rockefeller strain. […] Observations of controlling efficacy were made on host-seeking females of uniform age, 5 to 10 days old selected as mentioned in the publication mentioned hereinabove. Tested hungry females had access to 10% sugar solution but were not blood-fed.
The controlling effect according to the present invention was assessed using an adapted Warm Body assay as defined in Kröber T, Kessler S, Frei J, Bourquin M, Guerin P M. An in vitro assay for testing mosquito controlling compounds employing a warm body and carbon dioxide as a behavioral activator. J Am Mosq Control Assoc. 2010; 26:381-386.
The published protocol has been adapted in not manually counting the landing mosquitoes but automatically using an automatic counting software, the switch from Anopheles gambiae to Aedes aegypti led to a decrease of mosquitoes' number placed in the tested cage due to the size difference (i.e. 30 mosquitoes instead of 50) and to an increase of lighting as Aedes aegypti is a diurnal mosquitoes (i.e. 150 lux instead of 4 lux).
In this in-vitro assay the number of A. aegypti landing on a warm body treated with the tested stimuli was measured in order to assess the repellency effect. Three replicates were carried on the three different doses: 0.0016%, 0.04% and 1% in ethanol, using 25 A. aegypti 10-12 days old females per cage.
In this in-vitro assay, the number of Aedes aegypti landing on a warm body treated with the tested stimuli was measured in order to assess the repellency effect. Three replicates were carried on the three different doses: 0.0016%, 0.04% and 1% in ethanol.
In this in-vitro assay, the number of Aedes aegypti landing on a warm body treated with the tested stimuli was measured in order to assess the repellency effect. One replicate was carried at different doses ranging from 0.0016% up to 1% in ethanol.

The subject of another test is Ixodes ricinus. The test is described as follows: In vitro Warm Plate Assay for ticks. The test is classed as in vivo. As to conditions: for pest or weed control at 0.2 %: 0.2% (Table 10). The procedure:
Repellent efficacy of the different compounds was assessed against the sheep tick, Ixodes ricinus. I. ricinus is one of the recommended model organisms mentioned by the Guidance on the European Biological Products Regulation [Vol II, Efficacy-Assessment & Evaluation (Parts B+C), v. 3.0, April 2018]. Observations of repellent efficacy were made on last stage nymphs.
The repellent efficacy was assessed using the protocol of the in-vitro Warm Plate Assay as defined in Kröber T, Bourquin M, Guerin P M. A standardized in vivo and in vitro test method for evaluating tick repellents. Pesticide Biochemistry and Physiology. 2013; 107 (2): 160-168.].
The mean±SD number of ticks Ixodes ricinus walking down (affected), falling (affected) or walking-up (non affected) from the warm plate treated with ethanol, N,N-diethyl-3-methylbenzamide, (2,5-dimethyl-2,3-dihydro-1H-inden-2yl)methanol (Ingredient 2) or (2,4,6-trimethyl-2,3-dihydro-1H-inden-2-yl)methanol (Ingredient 1) diluted in ethanol at 0.4 mg/ml and 10 mg/mL was assessed on n groups of 12 ticks (n=2-5).
In this in-vitro assay, the percentage of ticks Ixodes ricinus affected by the stimulus loaded on the warm plate was measured in order to assess the repellency effect. Twelve ticks were assessed per concentrations that goes from 0.0016% up to 1% in ethanol.
Using the same in-vitro setup, the effect on ticks behavior (n≥12) of different stimuli diluted in ethanol at 20% (w/w) was assessed overtime.

The mark [1] stands for this setting: Aedes aegypti, read-out: decrease of landings.
The mark [2] stands for this setting: Ixodes ricinus, 0.04% (Table 10), read-out: percentage of ticks affected on the Warm Plate.
Setting [3] is: Ixodes ricinus, read-out: percentage of ticks affected on the Warm Plate.
Setting [4] is: Ixodes ricinus, 1% (Table 10), read-out: percentage of ticks affected on the Warm Plate.

Like-named read-outs stand apart in the source and are kept apart here.

For the compound `CC(C)c1ccc2c(c1)CC(C)(CO)C2` (racemic) [5-isopropyl-2-methyl-2-indanmethanol], the pest or weed control at 0.0016 % in the test with Aedes aegypti (setting [1]) was 4 to 29%; in the test with Ixodes ricinus (Ixodes ricinus, 0.0016% (Table 10), read-out: percentage of ticks affected on the Warm Plate), 21%. Besides, in the test with Ixodes ricinus (Ixodes ricinus, 0.00032% (Table 10), read-out: percentage of ticks affected on the Warm Plate), the pest or weed control at 0.00032 % was determined as 0%. For the same compound, the pest or weed control at 0.008 % in the test on Ixodes ricinus (Ixodes ricinus, 0.008% (Table 10), read-out: percentage of ticks affected on the Warm Plate) was 0%. Besides, in the test with Ixodes ricinus (setting [2]), the pest or weed control at 0.04 % is 71%. Besides, the pest or weed control at 0.2 % with Ixodes ricinus (setting [3]) was found to be 87%. Moreover, the pest or weed control at 1 % in the test with Ixodes ricinus (setting [4]) was determined as 92%. Also, the “concentration at which the level of 85% of ticks affected is reached” value with Ixodes ricinus (Tables 10 and 12) is 0.2%.

For the compound `Cc1ccc2c(c1)[C@H]1OCOC[C@H]1C2` (racemic) [(4aRS,9bSR)-8-methyl-4,4a,5,9b-tetrahydroindeno[1,2-d][1,3]dioxin], the “number of mosquitoes landed on the Warm Body” value (from here on “number of mosquitoes landed”) in the test with Aedes aegypti (0.0016% in ethanol (Table 6)) is on record as 103; with Aedes aegypti (0.04% in ethanol (Table 6)), 8; in the test with Aedes aegypti (1% in ethanol (Table 6)), 8. Moreover, the pest or weed control at 0.04 % in the test on Ixodes ricinus (setting [2]) was 8%. Besides, the pest or weed control at 0.2 % in the test with Ixodes ricinus (setting [3]) was determined as 33%. Also, the pest or weed control at 1 % in the test with Ixodes ricinus (setting [4]) amounted to 85%.

Regarding `CC(=O)C1(C)Cc2ccc(C)c(C)c2C1` (racemic) [(+−)-1-(2,4,5-trimethyl-2,3-dihydro-1H-inden-2-yl)ethanone], the “number of mosquitoes landed” value stood at 31 in the test with Aedes aegypti (0.0016% in ethanol (Table 6)), 5 in the test on Aedes aegypti (0.04% in ethanol (Table 6)) and 18 with Aedes aegypti (1% in ethanol (Table 6)). Moreover, the pest or weed control at 0.04 % with Ixodes ricinus (setting [2]) was 0%. In the test on Ixodes ricinus (setting [3]), the pest or weed control at 0.2 % worked out at 38%. Besides, the pest or weed control at 1 % in the test on Ixodes ricinus (setting [4]) amounted to 92%.

For `CC(=O)C1(C)Cc2ccc(C)cc2C1` (racemic) [(+−)-1-(2,5-dimethyl-2,3-dihydro-1H-inden-2-yl)ethanone], the results for the “number of mosquitoes landed” value in the test on Aedes aegypti (0.0016% in ethanol (Table 6)), with Aedes aegypti (0.04% in ethanol (Table 6)) and in the test on Aedes aegypti (1% in ethanol (Table 6)) were 119, 15 and 6, respectively. Further, in the test on Ixodes ricinus (setting [2]), the pest or weed control at 0.04 % came out at 0%. In addition, in the test with Ixodes ricinus (setting [3]), the pest or weed control at 0.2 % came out at 42%. Also, the pest or weed control at 1 % in the test with Ixodes ricinus (setting [4]) stood at 100%.

As for `CC1(CO)Cc2ccc(C(C)(C)C)cc2C1` (racemic) [(+−)-5-tert-butyl-2-methyl-2-indanmethanol], the “repellent effect with increasing amount of stimuli (in words)” value (“repellent effect with increasing amount” below) in the test on Aedes aegypti is “low decrease of landing”. Moreover, the pest or weed control at 0.0016 % with Ixodes ricinus (Ixodes ricinus, 0.0016% (Table 11), read-out: percentage of ticks affected on the Warm Plate) amounted to 0%. In addition, the pest or weed control at 0.04 % in the test with Ixodes ricinus (Ixodes ricinus, 0.04% (Table 11), read-out: percentage of ticks affected on the Warm Plate) was 8%. Further, the pest or weed control at 1 % in the test with Ixodes ricinus (Ixodes ricinus, 1% (Table 11), read-out: percentage of ticks affected on the Warm Plate) was 92%.

`Cc1ccc2c(c1)CC(C)(C(=O)O)C2` (stereo not shown) [2,5-dimethyl-2,3-dihydro-1H-indene-2-carboxylic acid]: in the test on Aedes aegypti (setting [1]), the pest or weed control at 0.0016 % lay in the range of 4 to 29%.

Regarding `Cc1ccc2c(c1)C1OC(=O)OCC1(C)C2` (stereo not shown) [4a,8-dimethyl-indano[1,2-d]-1,3-dioxan-2-one], the decrease of landings in the test with Aedes aegypti (0.04% in ethanol (FIG. 8)) is recorded as around 70%.

As to `CCc1ccc2c(c1)CC(C)(CO)C2` (stereo not shown) [5-ethyl-2-methyl-2-indanmethanol], in the test with Aedes aegypti (setting [1]), the pest or weed control at 0.04 % is around 70%.

For `Cc1ccc2c(c1)[C@@H]1O[C@H](C)OC[C@]1(C)C2` [(2R,4aS,9bS)-2,4a,8-trimethyl-4,4a,5,9b-tetrahydroindeno[1,2-d][1,3]dioxin], the “number of mosquitoes landed” value in the test on Aedes aegypti (0.0016% in ethanol (Table 6)) is 40; in the test on Aedes aegypti (0.04% in ethanol (Table 6)) it was 8; with Aedes aegypti (1% in ethanol (Table 6)) it was 10.

On to `CC1OC(C)C2Cc3ccccc3C2O1` (stereo not drawn) [(+)-2,4-dimethyl-4,4a,5,9b-tetrahydroindeno[1,2-d][1,3]dioxine + (−)-2,4-dimethyl-4,4a,5,9b-tetrahydroindeno[1,2-d][1,3]dioxine], for which the “number of mosquitoes landed” value in the test on Aedes aegypti (0.0016% in ethanol (Table 6)) is on record as 58; in the test with Aedes aegypti (0.04% in ethanol (Table 6)), 37; in the test on Aedes aegypti (1% in ethanol (Table 6)) it was 3.

In the case of “(1RS,2RS)-2-((2-methoxypropan-2-yloxy)methyl)-2,6-dimethyl-2,3-dihydro-1H-inden-1-ol+(1RS,2SR)-2-((2-methoxypropan-2-yloxy)methyl)-2,6-dimethyl-2,3-dihydro-1H-inden-1-ol”, the “repellent effect with increasing amount” value with Aedes aegypti was “significant lower repellent effect than DEET or IR3535”.

Consider “(1RS,2RS)-2-(hydroxymethyl)-2,6-dimethyl-2,3-dihydro-1H-inden-1-ol+(1RS,2SR)-2-(hydroxymethyl)-2,6-dimethyl-2,3-dihydro-1H-inden-1-ol”, for which the “repellent effect with increasing amount” value in the test on Aedes aegypti is “significant lower repellent effect than DEET or IR3535”.

Regarding “(2RS,4aRS,9bRS)-2,4a,7-trimethyl-4,4a,5,9b-tetrahydroindeno[1,2-d][1,3]dioxine + (2RS,4aSR,9bSR)-2,4a,7-trimethyl-4,4a,5,9b-tetrahydroindeno[1,2-d][1,3]dioxine”, the “number of mosquitoes landed” value in the test on Aedes aegypti (0.0016% in ethanol (Table 6)) was 30; in the test with Aedes aegypti (0.04% in ethanol (Table 6)), 0; with Aedes aegypti (0.04% in ethanol (Table 6), listed as blend of (2RS,4aRS,9bRS)-2,4a,7-trimethyl-4,4a,5,9b-tetrahydroindeno[1,2-d][1,3]), “no mosquito landed at all”; in the test with Aedes aegypti (1% in ethanol (Table 6)) it was 0; with Aedes aegypti (1% in ethanol (Table 6), listed as blend of (2RS,4aRS,9bRS)-2,4a,7-trimethyl-4,4a,5,9b-tetrahydroindeno[1,2-d][1,3]), “zero”.

With “(2RS,4aRS,9bSR)-2-ethyl-8-methyl-4,4a,5,9b-tetrahydroindeno[1,2-d][1,3]dioxin + (2RS,4aSR,9bRS)-2-ethyl-8-methyl-4,4a,5,9b-tetrahydroindeno[1,2-d][1,3]dioxin”, the entries for the “number of mosquitoes landed” value with Aedes aegypti (0.0016% in ethanol (Table 6)), in the test with Aedes aegypti (0.04% in ethanol (Table 6)) and in the test with Aedes aegypti (1% in ethanol (Table 6)) were 45, 24 and 10, respectively.

As to “(2RS,4aRS,9bSR)-2-methyl-4,4a,5,9b-tetrahydroindeno[1,2-d][1,3]dioxin + (2RS,4aSR,9bRS)-2-methyl-4,4a,5,9b-tetrahydroindeno[1,2-d][1,3]dioxin”, the “number of mosquitoes landed” value is given as 28 in the test with Aedes aegypti (0.0016% in ethanol (Table 6)), 2 with Aedes aegypti (0.04% in ethanol (Table 6)) and 2 with Aedes aegypti (1% in ethanol (Table 6)).

“(2RS,4aSR,9bRS)-2,8-dimethyl-4,4a,5,9b-tetrahydroindeno[1,2-d][1,3]dioxine + 2RS,4aRS,9bSR)-2,8-dimethyl-4,4a,5,9b-tetrahydroindeno[1,2-d][1,3]dioxine”: the “number of mosquitoes landed” value in the test on Aedes aegypti (0.0016% in ethanol (Table 6)) is reported as 38; in the test with Aedes aegypti (0.04% in ethanol (Table 6)), 14; in the test with Aedes aegypti (1% in ethanol (Table 6)), 4.

Turning to “(2RS,4aSR,9bRS)-2-ethyl-4,4a,5,9b-tetrahydroindeno[1,2-d][1,3]dioxine + (2RS,4aRS,9bSR)-2-ethyl-4,4a,5,9b-tetrahydroindeno[1,2-d][1,3]dioxine”, the “number of mosquitoes landed” value in the test on Aedes aegypti (0.0016% in ethanol (Table 6)) stood at 43; in the test with Aedes aegypti (0.04% in ethanol (Table 6)), 6; in the test with Aedes aegypti (1% in ethanol (Table 6)), 5.

The record behind these values is patent US20260068882A1, “ARTHROPOD CONTROLLING COMPOSITION” (Firmenich SA, priority 2019, published 2026).
